Results taken from patent US20170218375A1, “MORPHOLINOS, MORPHOLINO UPREGULATING, AND ASSOCIATED METHODS” (University of Utah Research Foundation, priority 2011, published 2017).

How the values were obtained:
sVEGFR2 mRNA [1] = assay: Real-time PCR of sVEGFR2 mRNA after morpholino transfection of HUVECs; type: cell-based, human; settings: GAPDH as internal control, compared with DPBS transfected HUVECs, p<0.001
Text: (§1) In addition, two polyadenylation sites (AAUAAA) are found in intron13 (FIG. 1A). […] FIG. 1(a) illustrates a schematic design of anti-sense morpholino oligomers. FIGS. 1(b, c) show the results of mbVEGFR2 and sVEGFR2 mRNA expression quantified by real-time PCR after morpholino transfection. All results are normalized by GAPDH expression and compared with DPBS transfected HUVECs as 1. p: risk factor by two-tail student's t-test. *: p<0.05, **p<0.01, ***p<0.001 compared with DPBS transfected HUVECs; n=6 for all groups; Error bar is ±s.e.m. It is thus concluded that human polyadenylation of sVEGFR2 mRNA occurs in intron13, and thus the present disclosure examines whether disruption of splicing between exon13-exon14 upregulates sVEGFR2.
(§2) It was discovered that VEGFR2_MOe13 downregulates mbVEGFR2 mRNA by 40% (p<0.05), while VEGFR2_MOi13 upregulates mbVEGFR2 mRNA by 2.5-fold (p<0.01) compared with DPBS transfected HUVECs.
(§3) Each morpholino oligomer was purchased from Gene Tools (Philomath, Oreg.). […] The cells were washed three times and fluorescence was detected by a FACScan Analyzer (BD Biosciences, San Jose, Calif.). […]
(§4) cDNAs were synthesized from 400 ng total RNA using Omniscript RT kit (Qiagen, Valencia, Calif.) and Oligo-dT primer(dT20) according to the manufacturer's instructions. Real-time PCR was performed using QuantiTect SYBR Green PCR Kit (Qiagen, Valencia, Calif.) and 1 μl of cDNA. […]

sVEGFR2 mRNA [2] = assay: Long-range 3'RACE from morpholino transfected HUVECs; type: cell-based, human
Description: To determine the 3′UTR of sVEGFR2 mRNA induced by morpholinos, long-range 3′RACE was performed (FIG. 5C). A strong band (˜1600 bp) was detected from VEGFR2_MOe13 and the combination of VEGFR2_MOe13 and VEGFR2_MOi13 transfected HUVECs. Based on the sequence of this band, sVEGFR2 mRNA utilizes a polyadenylation site located in 1403-1408 nt range of intron13 (FIG. 6B). […] These sequence components are similar to typical polyadenylation signals, which contain a cleavage site 10-35 nt downstream of AAUAAA and a GU-rich region 14-70 nt downstream of AAUAAA. […] Corneal tissue is known to predominantly express sVEGFR2.
cDNA was synthesized from total RNA extracted from morpholino transfected HUVEC using a cloning_R1 (Table 1). PCR was performed using a LongRange PCR Kit (Qiagen, Valencia, Calif.). PCR conditions: 93° C. for 3 minutes, 35 cycles of 93° C. for 15 seconds, 55° C. for 30 seconds and 68° C. for 6 minutes using VEGFR2_F1 and cloning_R2. After 1% agarose gel electrophoresis, specific bands were excised and subjected to DNA sequencing. To determine endogenous 3′UTR of sVEGFR2 mRNA, total RNA extracted from one human cornea which was obtained from the Utah Lions Eye Bank. cDNA was synthesized with the same above method, and PCR was performed using cloning_F(1042-1061) which is designed in human VEGFR2 intron13 and cloning_R2.

sVEGFR2 protein = assay: Western blot of culture medium of morpholino transfected HUVECs against VEGFR2 extracellular domain; type: cell-based, human; settings: three days, antibody to VEGFR2 extracellular domains
Description: (§5) Next, mbVEGFR2 protein expression by western blot was examined. VEGFR2_MOe13 or a combination of VEGFR2_MOe13 and VEGFR2_MOi13 reduced mbVEGFR2 protein expression compared to DPBS and STD_MO. […] (f) HUVECs stained with only secondary antibody were used as a negative control. […] To confirm sVEGFR2 protein expression, western blot from culture medium of morpholino transfected HUVECs was performed using an antibody recognizing the extracellular domains of VEGFR2 (FIG. 5). […] It is known that mbVEGFR2 can be glycosylated, thus increasing the molecular weight from 150 kD to 230 kD. In addition, sVEGFR2 has been detected at 160 kDa, although it has not reported whether this was derived from alternative polyadenylation or proteolytic cleavage from mbVEGFR2. Based on this information, it is likely that sVEGFR2 protein, upregulted following morpholino treatment, is glycosylated with an observed molecular weight of 150 kDa.
(§6) After nucleofection, cells were cultured in a 75 cm^2 flask for three days without changing the medium. After three days the media was collected and cell debris was removed by centrifugation. Trichloroacetic acid (20% (w/v), Fisher Scientific, Pittsburgh, Pa.) was added to concentrate the supernatant (final concentration of trichloroacetic acid was 10%). Cells were incubated in trichloroacetic acid for 30 minutes on ice and then centrifuged at ×12000 g 4° C. for 5 minutes. […]

mbVEGFR2 mRNA = assay: Real-time PCR of mbVEGFR2 mRNA after morpholino transfection of HUVECs; type: cell-based, human; settings: GAPDH as internal control, compared with DPBS transfected HUVECs
Text: as §1, §2, §3, §4

sVEGFR2 mRNA [3] = assay: RT-PCR analysis of sVEGFR2 mRNA from HUVECs two days after morpholino transfection; type: cell-based, human
Description: To limit the possibility of genomic contamination, VEGFR2exon10_F (designed in exon10) and VEGFR2_R (designed in intron13) were used for primers to detect sVEGFR2.
(§7) Each morpholino oligomer was purchased from Gene Tools (Philomath, Oreg.). The sequences of each morpholino oligomer and primers for PCR are listed in supplemental Table. HUVECs (Lonza, Walkersville, Md.) were cultured in EBM with EGM SingleQuot Kit supplements and growth factors according to the manufacturer's instructions (Lonza, Walkersville, Md.). MS-1 cells, a mouse endothelial cell line (ATCC, Manassas, Va.) were cultured in 5% FBS/DMEM. Morpholino oligomers were delivered to the nucleus by nucleofection (Amaxa, Gaithersburg, Md.) with a Basic Nucleofector Kit for Primary Mammalian Endothelial Cells (Amaxa, Gaithersburg, Md.) using program A-034 for HUVEC and MS-1 cells. For each nucleofection, 1×10^6 cells were used and plated on a 6-well plate. After 2 days of culture, cells were trypsinized and total RNA was extracted using a RNeasy mini kit (Qiagen, Valencia, Calif.) with DNaseI treatment. Detection of mbVEGFR2 was achieved by flow cytometry. […] The cells were washed three times and fluorescence was detected by a FACScan Analyzer (BD Biosciences, San Jose, Calif.). […]

mbVEGFR2 protein [4] = assay: Flow cytometry analysis of mbVEGFR2 protein on cell surfaces of transfected HUVECs; type: cell-based, human; settings: flow cytometry three days after nucleofection, DPBS 83.3%
Description: as §5
Each morpholino oligomer was purchased from Gene Tools (Philomath, Oreg.). The sequences of each morpholino oligomer and primers for PCR are listed in supplemental Table. HUVECs (Lonza, Walkersville, Md.) were cultured in EBM with EGM SingleQuot Kit supplements and growth factors according to the manufacturer's instructions (Lonza, Walkersville, Md.). […] The cells were washed three times and fluorescence was detected by a FACScan Analyzer (BD Biosciences, San Jose, Calif.). […]

mbVEGFR2 protein [5] = assay: Western blot for mbVEGFR2 from morpholino transfected HUVECs; type: cell-based, human; settings: compared to DPBS and STD_MO
Description: as §5, §6

[6] = test system: laser-induced choroidal neovascularization (CNV); assay: Laser-induced choroidal neovascularization (CNV) in mouse; type: in vivo; settings: 2 μl intravitreously day 1 and day 4: 100 ng/μl moVEGFR2_MOe13, 500 ng/μl anti-mouse VEGF-A IgG, 2 ng/μl SU1498, CNV volume day 7
Description: It was also examined whether moVEGFR2_MOe13 inhibits laser-induced choroidal neovascularization (CNV). Each morpholino or DPBS was injected intravitreously on day 1 and day 4 after laser photocoagulation, and laser CNV volumes were examined on day 7. […] Vessel endothelial cells were stained with Alexa fluor488 conjugated isolectin GS-IB4. […] After photocoagulation, on day 1 and day 4, 2 ul of 100 ng/μl STD_MO, 500 ng/μl Goat IgG (AB-108-C, R&D Systems, Minneapolis, Minn.), 100 ng/μl moVEGFR2_MOe13, 500 ng/μl Goat Anti-mouse VEGF-A IgG (AF-493-NA, R&D Systems, Minneapolis, Minn.) or 2 ng/μl SU1498 (572888, EMD chemicals, Gibbstown, N.J.) was injected intravitreously. On day 7, CNV volumes were measured by confocal microscope. n=14-20 for each group. Risk factors (p-value) were calculated by two-tail student's t-test (*: p<0.05, **p<0.01). Error bar is ±s.e.m.
as §7

5′-CCACACGCTctagacacacaaaaag-3′ (antisense CCACACGCTCTAGACACACAAAAAG; all phosphorodiamidate morpholino (PMO)) [VEGFR2_MOi13, antisense morpholino oligomer corresponding to the junction of intron13-exon14 of human VEGFR2]
increase of sVEGFR2 mRNA (sVEGFR2 mRNA [1]): 4.4 fold
3'RACE band (~1600 bp) corresponding to sVEGFR2 mRNA using the polyadenylation site in intron13 (sVEGFR2 mRNA [2]): did not show a strong band
sVEGFR2 protein in culture medium by western blot (sVEGFR2 protein): could not detect
upregulation of mbVEGFR2 mRNA (mbVEGFR2 mRNA; p<0.01): 2.5 fold
detection of sVEGFR2 mRNA by RT-PCR (sVEGFR2 mRNA [3]): detected
mbVEGFR2 positive cells (mbVEGFR2 protein [4]): 82.5%

5′-gatccagaattgtctccctacCTAG-3′ (antisense GATCCAGAATTGTCTCCCTACCTAG; all phosphorodiamidate morpholino (PMO)) [VEGFR2_MOe13, antisense morpholino oligomer corresponding to the junction of exon13-intron13 of human VEGFR2]
increase of sVEGFR2 mRNA (sVEGFR2 mRNA [1]): 17 fold
3'RACE band (~1600 bp) corresponding to sVEGFR2 mRNA using the polyadenylation site in intron13 (sVEGFR2 mRNA [2]): strong band
sVEGFR2 protein in culture medium by western blot (sVEGFR2 protein): 150 kD bands were detected
downregulation of mbVEGFR2 mRNA (mbVEGFR2 mRNA; p<0.05): 40%
detection of sVEGFR2 mRNA by RT-PCR (sVEGFR2 mRNA [3]): detected
mbVEGFR2 positive cells (mbVEGFR2 protein [4]): 40.7%
mbVEGFR2 protein expression by western blot (mbVEGFR2 protein [5]): reduced

CC(C)c1cc(/C=C(\C#N)C(=O)NCCCc2ccccc2)cc(C(C)C)c1O [SU1498, reference compound]
suppression of CNV compared with anti-VEGF-A IgG and SU1498 (FIG. 9) [6]: inhibitory effects
